This note sets out measurements from patent US7794761B2, “Methods for inducing anti-anxiety and calming effects in animals and humans” (Seroctin Research & Technology, Inc., priority 2000, dated 2010).

For this assay, the system named is montane vole, Microtus montanus. Briefly: Uterine weight response in female montane voles after intraperitoneal injection. The format is in vivo. As to conditions: i.p. 5 mcg/day for three days; for Average Uterine Weight: sacrificed 24 hours after last injection, control 15.2 ± 2.4. The protocol: Female montane voles, Microtis montanus, received intra peritoneal injections of representative compounds belonging to Formulas I, II and III for three consecutive days and sacrificed twenty-four (24) hours after the last injection to examine uterine weight response. To assess the properties of each representative compound, pure ones made by chemical means (University of Utah Department of Chemistry, Salt Lake City, Utah) were prepared specifically for this test. All compounds were injected at a dose level of 5 mcg/day, dissolved in five percent (5%) propylene glycol for a total injection volume of 0.5 ml. Control animals received 0.5 ml of five percent (5%) propylene glycol only. All voles were 4-5 weeks old and weighed 25-29 g.

In the case of `COc1ccc(O)c(N)c1` [2-amino-4-methoxyphenol], the “Average Uterine Weight” value turned out to be 22.2 ± 3.2 mg. For the compound `COc1ccc(N)c(O)c1` [2-amino-5-methoxyphenol], the “Average Uterine Weight” value is reported as 21.8 ± 3.5 mg. On to `CCOc1ccc(NC(C)=O)c(O)c1` [2-hydroxy-4-ethoxyacetanilide], for which the “Average Uterine Weight” value was 22.2 ± 3.9 mg. Regarding `COc1ccc(NC(C)=O)c(O)c1` [2-hydroxy-4-methoxyacetanilide], the “Average Uterine Weight” value was 23.1 ± 2.7 mg. For `COc1ccc(O)c(NC(C)=O)c1` [2-hydroxy-5-methoxyacetanilide], the “Average Uterine Weight” value came to 21.1 ± 4.4 mg.

Turning to `COc1ccc2oc(=O)[nH]c2c1` [5-methoxy-2-benzoxazolinone], the “increase in uterine weight over control group” value came to 32% and the “Average Uterine Weight” value was 20.0 ± 4.7 mg. For the compound `COc1ccc2[nH]c(=O)oc2c1` [6-methoxy-2-benzoxazolinone], the “increase in uterine weight over control group” value came to 82% and the “Average Uterine Weight” value is listed as 27.7 ± 5.6 mg.
